One data set in a line: Kinetic solubility assay. Conditions: for solubility at 6 h: physiological buffer, pH 7.4, kinetic solubility, physiological buffer pH 7.4, room temperature, six hours. It counts as physicochemical. The procedure:
A stock solution of each active compound in DMSO (10 mg/mL) was prepared and diluted into physiological buffer (pH 7.4) to a concentration of 100 µg/mL, and the mixture was left at room temperature for six hours. After six hours, the sample was centrifuged, and the supernatant was diluted with a methanol-water solution containing an internal standard (IS). The calibration curve was established using seven-point standards prepared by serial dilution in a range that the unknown sample signal would likely fall in and precisely simulating the sample preparation process. The standards and samples were quantified using LC-MS/MS, and unknown concentrations were back-calculated from the calibration curve.

Data set [1] can be described thus: Metabolic stability against S9 fraction. The class given is in vitro ADME. Conditions: human, liver S9 fraction, against human S9 fraction (footnote), NADPH, 37 °C; read-out: Metabolic Stability t1/2 (converted). As to the method: The metabolic stability of the prodrug was assessed in the mouse liver S9 fraction. Briefly, 5 μg/mL of prodrug was incubated with 1 mg/mL mouse liver S9 fraction supplemented with 1 mg/mL nicotinamide adenine dinucleotide phosphate (NADPH) in Dulbecco’s phosphate-buffered saline at 37 °C. At designated time points (i.e., 0, 0.5, 1, 2 h), 100 μL samples were collected and quenched immediately with 300 μL methanol containing 1 μg/mL internal standard. Samples were vortexed for 30 s and centrifuged at 15,000 rpm for 10 min. Supernatant was assessed by LC/MS.

The test system of a further data set is zebrafish neuromast SCs. As to the kind of experiment: EdU proliferation assay in zebrafish neuromasts. It counts as in vivo, zebrafish (Danio rerio). Conditions: p < 0.05; for Number of proliferating (EdU-positive) cells per neuromast vs control: zebrafish, 50–300 μg/mL, 24 h post-treatment. As to the method: In vitro cell proliferation effects of all ten initial compounds (Figure 1A,B) were tested on HEI-OC1, Neuro-2A and HT-1080 cells by TACS® 3-(4,5-dimethylthiazol-2-yl)-2,5-diphenyltetrazolium bromide (MTT) Cell Proliferation Assay (R&D Systems, Minneapolis, MN, USA, 4890-025-K), following the manufacturer’s protocol. Absorbance was measured with SpectraMax® M Series Multi-Mode Microplate Reader with Soft Max Pro 7.2 GxP Software (Molecular Devices, Sunnyvale, CA, USA), and the average OD in control cells was taken as 100% of viability. Upon selecting the most viable compounds (Qx-294 and Qx-301), we proceeded with in vivo experiments. For zebrafish treatment, animals were incubated for varied times with different concentrations (50, 100, 150, 200, 250, and 300 μg/mL) of Qx-294 or Qx-301 diluted in swimming (E3) media or administered via IP injections. Mice treatment followed the same procedures as described in [18]. Following treatment, animals or tissue samples were incubated in Click-it EdU or Click-it Plus TUNEL kits (Thermo Scientific, Waltham, MA, USA), following the manufacturer’s instructions to label proliferating and apoptotic cells, respectively.
Cell numbers in mouse cochleae or fish, as well as fish neuromast morphologies, were evaluated in 25 zebrafish per drug and treatment group across three experimental runs. […] Images were analyzed at 200X magnification, obtained from different neuromasts and cochlear regions (apex, middle, and base). HCs were quantified in the mouse OC by counting M7a-positive cells, with HC identity further confirmed by phalloidin-labeled stereocilia. Apoptosis and cell proliferation events, on the other hand, were quantified by counting TUNEL- and EdU-positive cells, respectively. […] The number of HCs (IHCs and OHCs) is expressed as units per 200 μm. […] IHCs and OHCs were counted on reconstructed confocal stacks using NIH ImageJ v1.8.0 software. […] Reliability statistics were calculated in SPSS v22.0. […] Fluorescence incorporation following treatment with FM1-43 was quantified according to [19] using ImageJ. […]

For data set [2], the system named is mechanotransduction channel activity of mouse cochlear HCs. Kind of data set: FM1-43 uptake in mouse cochlear HCs. Conditions: mice, 24, 48 and 72 h after injection. It counts as in vivo. As to the method: The styryl pyridinium dye FM1-43 provides an optical measure of mechanotransduction channel function and, therefore, was used as a proxy for the viability of the neuromast cells treated with QX-294 or QX-301, as well as indirect information on the functional capability of newly formed HCs. FM1-43FX (Thermo Scientific, Waltham, MA, USA) uptake experiments in zebrafish were performed as previously described. Zebrafish were incubated with E3 alone (control) or in the presence of Qx-294 or Qx-301, both at 300 μM, for 7 h and then immediately exposed to 3 μM FM1-43FX for 40 s. Alternatively, animals were transferred to a fresh E3 solution for 1 h and then exposed to the dye. For mouse treatment, 24, 48, and 72 h after animals were injected with […] Qx-294 or Qx-301, their cochleae were dissected, transiently exposed to FM1-43 FX dye (1 mg/mL) for 45 s, and then fixed in 4% PFA. All animals were P28 at completion of the treatment. Fluorescence incorporated was quantified according to [19] using ImageJ (ImageJ2 1.54r).

In brackets after ≈: the same amount, converted by molar mass.

The values below come from PMC12731105, “Design and Synthesis of New Quinoxaline Analogs to Regenerate Sensory Auditory Hair Cells” (Cells, 2025).

As usually defined, the solubility is the concentration that dissolves in the medium under given conditions. A higher solubility goes with much dissolved substance.

Take `c1ccc2nc(N3CCCC3)cnc2c1` [Qx-301, 2-(pyrrolidine)-quinoxaline]: in “Kinetic solubility assay”, the “Aqueous solubility” value is given as “low aqueous solubility” and the solubility at 6 h is 0.365 ± 0.028 µg/mL (≈ 1.83 µM). Also, the half-life at 5 μg/mL in data set [1] was 9.1 ± 8.4 h. In addition, the “Number of EdU-positive SCs compared between the two compounds” value with zebrafish neuromast SCs (zebrafish neuromasts, Two-Way ANOVA with Bonferroni correction) is given as “significantly higher for Qx-301- than for Qx-294-treated neuromasts”. Further, the “Number of proliferating (EdU-positive) cells per neuromast vs control” value in the data set with zebrafish neuromast SCs is given as “significantly higher number of proliferating cells than the control groups”. Further, in data set [2], the “FM1-43 fluorescence intensity incorporated by the cochleae vs control” value is “did not show any significant differences from the control samples”.
Consider `c1ccc2nc(N3CCOCC3)cnc2c1` [Qx-294, 2-(morpholine)-quinoxaline], for which, in the data set “Kinetic solubility assay”, the “Aqueous solubility” value is “low aqueous solubility” and the solubility at 6 h was roughly 0.551 µg/mL (≈ 2.56 µM). In data set [1], the half-life at 5 μg/mL was roughly 57 h. In the data set on zebrafish neuromast SCs, the “Number of proliferating (EdU-positive) cells per neuromast vs control” value is on record as “significantly higher number of proliferating cells than the control groups”. In addition, the “FM1-43 fluorescence intensity incorporated by the cochleae vs control” value in data set [2] is listed as “did not show any significant differences from the control samples”.
